Columns and labels:
TRPA1 (mTRPA1) [1] = target: T1, TRPA1 (mTRPA1) (Mus musculus, UniProt Q8BLA8); test: whole-cell patch clamp, agonist concentration-response in transfected HEK293 cells; no current in untransfected cells; type: cell-based
TRPA1 (mTRPA1) [2] = target: T1, TRPA1 (mTRPA1); test: whole-cell patch clamp, inhibition of AITC-induced current in transfected HEK293 cells; type: cell-based

T1 sequence (Q8BLA8 whole entry): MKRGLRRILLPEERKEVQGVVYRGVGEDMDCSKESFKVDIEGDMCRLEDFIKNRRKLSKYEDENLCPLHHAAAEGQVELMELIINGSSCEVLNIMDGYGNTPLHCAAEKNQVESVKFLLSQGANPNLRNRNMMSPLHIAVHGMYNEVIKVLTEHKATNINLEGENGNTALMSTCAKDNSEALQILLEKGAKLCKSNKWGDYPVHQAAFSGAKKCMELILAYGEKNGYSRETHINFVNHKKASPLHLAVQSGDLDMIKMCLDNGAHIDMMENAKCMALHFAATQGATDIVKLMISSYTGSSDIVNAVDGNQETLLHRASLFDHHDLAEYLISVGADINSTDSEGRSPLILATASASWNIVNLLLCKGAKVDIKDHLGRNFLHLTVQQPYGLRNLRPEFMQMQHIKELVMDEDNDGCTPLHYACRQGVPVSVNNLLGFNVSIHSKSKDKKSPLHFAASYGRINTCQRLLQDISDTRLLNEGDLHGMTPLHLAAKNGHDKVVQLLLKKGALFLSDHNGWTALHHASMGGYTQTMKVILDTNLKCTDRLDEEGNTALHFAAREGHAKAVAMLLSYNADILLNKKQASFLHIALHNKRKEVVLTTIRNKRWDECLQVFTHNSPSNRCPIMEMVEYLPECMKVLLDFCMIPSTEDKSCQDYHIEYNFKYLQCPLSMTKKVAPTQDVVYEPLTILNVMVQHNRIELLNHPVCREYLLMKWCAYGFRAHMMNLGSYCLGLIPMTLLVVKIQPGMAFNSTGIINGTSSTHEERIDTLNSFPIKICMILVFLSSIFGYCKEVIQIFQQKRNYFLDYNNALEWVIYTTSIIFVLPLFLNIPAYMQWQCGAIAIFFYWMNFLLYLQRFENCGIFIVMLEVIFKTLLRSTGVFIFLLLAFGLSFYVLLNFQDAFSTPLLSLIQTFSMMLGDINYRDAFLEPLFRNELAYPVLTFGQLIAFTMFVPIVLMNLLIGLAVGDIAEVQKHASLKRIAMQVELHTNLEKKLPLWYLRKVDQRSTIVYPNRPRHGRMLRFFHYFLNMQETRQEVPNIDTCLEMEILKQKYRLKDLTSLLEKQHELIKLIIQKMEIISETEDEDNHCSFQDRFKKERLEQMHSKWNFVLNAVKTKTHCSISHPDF

Compound | EC50 (TRPA1 (mTRPA1) [1]) [µM] | IC50 (TRPA1 (mTRPA1) [2]) [µM]
C=CCN=C=S [AITC, allyl isothiocyanate] | 61.2 | 
Oc1ccc(/C=C/c2cc(O)cc(O)c2)cc1 [RES, 3,5,4’ - trihydroxy-trans-stilbene] |  | ~0.75
